Measured values as given in publication PMC5550883, “Binding of doxorubicin to Sorcin impairs cell death and increases drug resistance in cancer cells” (Cell Death & Disease, 2017).

What was measured:
Sorcin [1] = molecular target: T1, Sorcin (Homo sapiens, UniProt P30626); assay: SPR, immobilized Sorcin, one-site fit; format: binding
T1 construct: gene SRI; full-length wild type; immobilized by amine coupling for SPR; homodimer
T1 sequence (P30626 1-198): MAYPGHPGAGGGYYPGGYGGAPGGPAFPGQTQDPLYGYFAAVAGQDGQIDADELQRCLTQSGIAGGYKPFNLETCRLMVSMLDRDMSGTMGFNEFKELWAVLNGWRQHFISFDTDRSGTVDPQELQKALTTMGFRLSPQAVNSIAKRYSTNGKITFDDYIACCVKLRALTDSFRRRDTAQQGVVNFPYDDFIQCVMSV

Sorcin [2] = molecular target: T1, Sorcin; assay: SPR (OneStep), immobilized Sorcin; format: binding; details: HEPES 20 mM pH 7.4, NaCl 150 mM, 2% DMSO, 25 C; CaCl2 or EDTA not told
[3] = molecular target: T2, Sorcin calcium-binding domain (SCBD) (Homo sapiens, UniProt P30626); assay: intrinsic tryptophan/tyrosine fluorescence quenching titration (ex […] nm), two-site fit; details: Tris-HCl 10 mM pH 7.5, 0.5 uM EDTA, 25 C; stronger of two sites; unreliable (KD1 below protein concentration, large errors)
T2 construct: gene SRI; dimer
T2 sequence (P30626 32-198): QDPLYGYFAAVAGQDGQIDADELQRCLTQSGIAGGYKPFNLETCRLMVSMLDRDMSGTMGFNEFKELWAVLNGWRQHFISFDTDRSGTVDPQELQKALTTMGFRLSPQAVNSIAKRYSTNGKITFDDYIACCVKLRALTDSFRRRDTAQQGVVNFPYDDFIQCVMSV

[NH2][Pt]([NH2])([Cl])[Cl] [cisplatin]
Kd (Sorcin [1]): 1.7 µM

CC(=O)O[C@H]1C(=O)[C@@]2(C)[C@H]([C@H](OC(=O)c3ccccc3)[C@]3(O)C[C@H](OC(=O)[C@H](O)[C@@H](NC(=O)c4ccccc4)c4ccccc4)C(C)=C1C3(C)C)[C@]1(OC(C)=O)CO[C@@H]1C[C@@H]2O [paclitaxel]
Kd (Sorcin [2]): Sorcin is able to bind doxorubicin, paclitaxel and vinblastine, with high affinity

COc1cccc2c1C(=O)c1c(O)c3c(c(O)c1C2=O)C[C@@](O)(C(=O)CO)C[C@@H]3O[C@H]1C[C@H](N)[C@H](O)[C@H](C)O1 [doxorubicin]
affinity constant [3]: 1.4 ± 1 nM

CC[C@]1(O)C[C@@H]2CN(CCc3c([nH]c4ccccc34)[C@@](C(=O)OC)(c3cc4c(cc3OC)N(C)[C@H]3[C@@](O)(C(=O)OC)[C@H](OC(C)=O)[C@]5(CC)C=CCN6CC[C@]43[C@@H]65)C2)C1 [vinblastine]
Kd (Sorcin [2]): Sorcin is able to bind doxorubicin, paclitaxel and vinblastine, with high affinity
